According to patent US20080287405A1, “Compositions and Methods Relating to Protein Kinase Inhibitors” (priority 2004, published 2008):
Structures can show the parent of a compound that is named as a salt.

Columns and labels:
bleomycin-injured mice = assay: Murine model of bleomycin-induced pulmonary fibrosis (lung collagen, histology); assay type: in vivo; conditions: 6 mg/kg IP or oral gavage for 21 days
Excerpt: Mice were given intratracheal bleomycin (BL) or saline (control). […] A) Lungs were harvested on day 14 following bleomycin injury and total lung collagen determined as described in “Methods”. […] B) Representative histopathology (hematoxylin and eosin staining, top panels; Masson's trichrome blue staining for collagen, bottom panels) of the lungs of mice intra-tracheally instilled with saline (control) or bleomycin (BL). […] Lungs were examined at day 14 following bleomycin injury.
Tissue sections were stained (H&E, mag 100×) 21 days following bleomycin and 14 days after treatment with NL-71-101.
B6129F2/J mice were purchased from Jackson Laboratories, Bar Harbor, Me., and housed under specific pathogen free conditions in enclosed filter top cages. Clean food and water was given ad libitum. The mice were handled and maintained using microisolator techniques with daily veterinarian monitoring. […]
Mice were euthanized by CO2 asphyxiation and perfused via the heart with 5 ml of normal saline. […] Following centrifugation, the pellet was resuspended in 1 ml of alkali reagent, vortexed to release the dye into solution, and 100 μl transferred to a microplate and absorbance measured at 540 nm. Values for experimental samples were calculated based on a standard curve of known concentrations of purified rat tail collagen. […]

α-SMA [1] = assay: α-SMA expression in lung fibroblasts isolated from drug-treated bleomycin-injured mice (Western); assay type: in vivo; conditions: 6 mg/kg IP or oral gavage for 21 days
Excerpt: C57BL/6J mice were given intratracheal (IT) saline or bleomycin on day 1. […] Fibroblasts were isolated from lung explants on day 14 and expanded in in vitro cell culture. Cells were lysed in RIPA buffer at passage 2 and 90% confluency. Cell lysates were subjected to sodium dodecyl sulfate polyacrylamide gel electrophoresis and immunoblotted with antibodies against α-SMA (a marker of myofibroblast differentiation), phospho-S^473 Akt, and phospho-Y^397 FAK.
Fibroblasts were isolated from lung explants on day 14 and expanded in in vitro cell culture, initially in the presence of 10% fetal bovine serum and then in the absence of serum for 24 h. Cell lysates were obtained and subjected to SDS-PAGE and immunoblotted with antibodies against the proteins indicated.
Mice were treated with Gleevec by IP injection (6 mg/kg) or oral gavage (6 mg/kg) for 21 days. Fibroblasts were isolated from lung explants and cell lysates subjected to SDS-PAGE and immunoblotted for α-SMA. Blots were stripped and re-probed for α-tubulin. Additionally, the effects of Gleevec on pro-fibrotic signaling of fibroblasts by TGF-α1. […]
To determine the result of systemic administration of AG1879 in stable modulation of signaling/phenotype of fibroblasts and myofibroblasts in vivo, fibroblasts isolated from lungs of bleomycin injured mice were analyzed. […]

α-SMA [2] = assay: α-SMA expression in normal human lung fibroblasts (IMR-90) ± TGF (Western); assay type: cell-based
Protocol: (§1) Mice were treated with Gleevec by IP injection (6 mg/kg) or oral gavage (6 mg/kg) for 21 days. Fibroblasts were isolated from lung explants and cell lysates subjected to SDS-PAGE and immunoblotted for α-SMA. Blots were stripped and re-probed for α-tubulin. Additionally, the effects of Gleevec on pro-fibrotic signaling of fibroblasts by TGF-α1. Normal human lung fibroblasts (IMR-90) were stimulated ±TGF-â1 (2 ng/ml) Gleevec at the doses indicated for 24 h. Cell lysates were then subjected to SDS-PAGE and immunoblotted for specific antibodies to the proteins shown.
The present invention is not limited to a particular mechanism. Indeed, an understanding of the mechanism is not necessary to practice the present invention. […] Furthermore, these observations emphasize the importance of defining the modulation of fibroblast phenotypes/signaling both in vitro and in vivo.

PKB/Akt [3] = assay: TGF-induced PKB/Akt phosphorylation in normal human lung fibroblasts (IMR-90); assay type: cell-based; conditions: IMR-90, TGF 2 ng/ml, 24 h
Protocol: as §1
(§2) The present invention is not limited to a particular mechanism. Indeed, an understanding of the mechanism is not necessary to practice the present invention.

FAK [4] = assay: TGF-induced FAK phosphorylation in normal human lung fibroblasts (IMR-90); assay type: cell-based; conditions: IMR-90, TGF 2 ng/ml, 24 h
Protocol: as §1, §2

ERK-1/2 MAPK = assay: Baseline ERK-1/2 MAPK phosphorylation in normal human lung fibroblasts (IMR-90); assay type: cell-based; conditions: IMR-90, 24 h, doses indicated in FIG. 9
Protocol: as §1, §2

PKB/Akt [5] = assay: Constitutive PKB/Akt phosphorylation in IPF fibroblasts (Western immunoblot); assay type: cell-based, human; conditions: 16 h prior to cell lysis
Excerpt: (§3) Cell lysates were then subjected to SDS-PAGE and immunoblotted with specific antibodies against phospho-S^473 Akt and phospho-Y^397 FAK; blots were stripped and re-probed for total Akt and FAK, respectively.
(§4) Research protocols involving human subjects received prior approval by the Institutional Review Board at the University of Michigan. […] Fibroblasts were also isolated from normal-appearing lung tissue sections surgically removed from patients undergoing evaluation for suspected lung cancer. Cells were cultured in medium consisting of Dulbecco's modified Eagle's medium (DMEM; GIBCO, Grand Island, N.Y.) supplemented with 10% fetal bovine serum (FBS; Sigma, St. Louis, Mo.), 100 U/ml penicillin/streptomycin (Sigma, St. Louis Mo.), and fungizone (GIBCO, Grand Island, N.Y.); medium was changed every two days. Passage 3-5 fibroblasts were plated on 60 mm cell culture dishes at a density of 5×10^5 cells/dish and incubated at 37° C. in 5% CO2-95% air. When cells reached 80% confluence, they were growth-arrested for 48 hours in DMEM with 0.01% FBS prior to treatment with/without TGF-β1.
(§5) Porcine-derived TGF-β1 was obtained from R&D Systems, Minneapolis, Minn. All other cell culture reagents were from Sigma, St Louis, Mo. […] Drugs were initially solubilized in DMSO to make a 30 mM “stock” concentration. […]

PKB/Akt [6] = assay: TGF-β1-induced PKB/Akt phosphorylation in normal fibroblasts (Western immunoblot); assay type: cell-based, human; conditions: TGF-β1 2 ng/ml, 10 μM drug co-treated, 16 h
Excerpt: as §3, §4, §5

FAK [7] = assay: TGF-β1-induced FAK phosphorylation in normal fibroblasts (Western immunoblot); assay type: cell-based, human; conditions: TGF-β1 2 ng/ml, 10 μM drug co-treated, 16 h
Excerpt: as §3, §4, §5

Row | Compound | efficacy as an anti-fibrotic agent (bleomycin-injured mice) | expression of α-SMA in lung fibroblasts cultured from treated mice (α-SMA [1]) | baseline α-SMA expression (α-SMA [2]; IMR-90, 24 h, no TGF) | TGF-α1-induced α-SMA expression (α-SMA [2]; IMR-90, TGF 2 ng/ml, 24 h) | TGF-α1-induced phosphorylation/activation of PKB/Akt (PKB/Akt [3]) | TGF-α1-induced phosphorylation/activation of FAK (FAK [4]) | baseline phosphorylation of ERK-1/2 MAPK (ERK-1/2 MAPK) | inhibition of constitutive PKB/Akt phosphorylation at 10 μM (PKB/Akt [5]) | inhibition of TGF-β1-induced PKB/Akt phosphorylation (PKB/Akt [6]) | inhibition of TGF-β1-induced FAK phosphorylation (FAK [7])
1 | Cc1ccc(NC(=O)c2ccc(CN3CCN(C)CC3)cc2)cc1Nc1nccc(-c2cccnc2)n1 [Gleevec, imatinib mesylate] | not to be effective | enhanced expression | modest reductions | does not inhibit | promoted/enhanced | promoted/enhanced | dose-dependently enhanced | – | – | –
2 | Nc1ncnc2c1cnn2-c1ccccc1 [c/AG, 4-Amino-7-phenylpyrazol[3,4-d]pyramidine] | – | – | – | – | – | – | – | no effect | no effect | no effect
